Experimental data taken from US5977165A, “Radicicol derivatives” (Kyowa Hakko Kogyo Co., Ltd., priority 1995, dated 1999).
Values after ≈ are worked out from the molar mass of the structure shown. Like-named read-outs stand apart in the source and are kept apart here.

Columns and labels:
[1] = test system: Eacillus subtilis No. 10707; experiment: Antibacterial activity test (agar dilution method); format: cell-based; settings: pH 7, Eacillus subtilis No. 10707, read-out: Minimum growth inhibition concentration (MIC), BS
Method: (§1) Antibacterial Activity Test
(§2) the antibacterial activity was measured by an agar dilution method using a medium (pH 7) which has been prepared by dissolving 3 g of Bacto-Tryptone (manufactured by Difco), 3 g of meat extract, 1 g of yeast extract, 1 g of flucose and 16 g of agar in 1 l of water. The antibacterial activity was expressed by minimum growth inhibition concentration (MIC).
BS: Eacillus subtilis No. 10707

P388 leukemia = experiment: Antitumor test on P388 leukemia; format: in vivo, mouse; settings: CDF1 mice, 1×10^6 P388 cells i.p., compound into abdominal cavity 24 hours after transplantation, 30 days; dose not given
Method: Antitumor Test on P388 Leukemia
The ascitic fluid was collected from the abdominal cavity of P388 ascites-induced mouse (DBA/2) 7 days after the transplantation. The number of P388 cells in the ascitic fluid was counted to prepare a tumor cell suspension of 5×10^6 cells/ml using sterilized physiological saline, and its 0.2 ml portion (containing 1×10^6 cells) was transplanted into the abdominal cavity of CDF1 mice having 20 to 25 g in body weight. […] Effects of the test compounds were judged by the ratio of average survival days in the test compound-administered group to that in the control group (un-treated group) (increased life span, ILS %).

sarcoma 180 solid tumor = experiment: Antitumor test on sarcoma 180 solid tumors; format: in vivo, mouse; settings: ddY mice, intravenous injection 24 hours after s.c. transplantation, tumor volume at 7 days; dose not given
Method: Antitumor Test on Sarcoma 180 Solid Tumors
Seven days after transplantation of 5×10^6 of sarcoma 180 cells into the abdominal cavity of a ddY mouse, the cells were collected from the ascitic fluid, washed once with sterilized physiological saline and then made into a cell suspension of 5×10^7 cells/ml using sterilized physiological saline. A 0.1 ml portion of the cell suspension was transplanted under the skin of the right side axillary part of ddY mice of 20±2 g in body weight and, after 24 hours of the tumor transplantation, 0.1 to 0.2 ml of each test compound dissolved in physiological saline or polyoxyethylene sorbitan monolaurate-containing physiological saline was administered by intravenous injection to ddY mice of 5 animals per group. The major axis (a) and the minor axis (b) of each tumor 7 days after the transplantation were measured to calculate the tumor volume as an a×b^2 /2 value. Antitumor activity of each test compound was expressed by the ratio (T/C) of the tumor volume (T) of the test compound-administered group to the tumor volume (C) of the control group in which the drug was not administered.

T cell growth = T cell growth inhibition test by mixed mouse lymphocyte culture reaction; format: cell-based; settings: 72 hours, 37° C., [^3 H]-thymidine incorporation, AKR spleen / B10.BR lymph node cells
Method: T Cell Growth Inhibition Test by Mixed Mouse Lymphocyte Culture Reaction
The spleen was excised aseptically from an AKR mouse (Japan SLC Co., Ltd.) and made into a single cell suspension. The suspension was mixed with mitomycin C (MMC) (Kyowa Hakko Kogyo Co., Ltd.) (final concentration, 50 μg/ml) and cultured at 37° C. for 30 minutes. After the culturing, the cells were washed three times with a solution (HBSS) prepared by adding 2.5% fetal calf serum (FCS, Gibco Co.) to Hanks' balanced salt solution (Gibco Co.) and then adjusted to a density of 1×10^7 cells/ml.
A 50 μl portion of B10.BR mouse (Japan SLC Co., Ltd.) lymph node cell suspension (containing 1.5×10^5 cells), 50 μl of AKR mouse spleen cell suspension (containing 5×10^5 cells) and 100 μl of radicicol solution having each test concentration were added to each well of a 96 well microtiter plate and cultured at 37° C. for 72 hours in a CO2 incubator. A 1.0 μCi portion of [^3 H]-thymidine was added 18 hours before the completion of the culturing. After completion of the culturing, the cells were trapped on a filter paper using a cell harvester and dried, and then a toluene scintillator was added thereto to measure the amount of radioactivity of [^3 H]-thymidine incorporated into cells using a scintillation counter (test group). As a control group, the same culturing was carried out without adding the solution of Compound (I) and then the amount of radioactivity of [^3 H]-thymidine incorporated into cells was measured. The T cell growth inhibition ratio was calculated based on the following formula, from which the concentration of each test compound that inhibits 50% of the growth (IC50 was calculated. [formula] (In the above formula, the radioactivity in MMC-treated AKR mouse means the radiation dose of [^3 H]-thymidine incorporated into MMC-treated AKR mouse spleen cells, and the radioactivity in B10.BR mouse means the radiation dose of [^3 H]-thymidine incorporated into B10.BR mouse lymph node cells.)

[2] = test system: Enterococcus hirae ATCC 10541; format: cell-based; settings: pH 7
Method: as §1, §2
EH: Enterococcus hirae ATCC 10541

HeLa S3 cells = experiment: Cell growth inhibition test on HeLa S3 cells; format: cell-based; settings: Homo sapiens, read-out: IC50, cell growth inhibition activity upon HeLa S3 cells
Method: Cell Growth Inhibition Test on HeLa S3 Cells
HeLa S3 cells which have been adjusted to 3.0×10^4 cells/ml with MEM medium (manufactured by Nissui Pharmaceutically containing 10% fetal calf serum and 2 mM […] were dispensed in 0.1 ml/well portions into a 96 well microtiter plate. The cells were cultured at 37° C. for 20 hours in a carbon dioxide gas incubator, the culture supernatant was removed and then the plate was washed once with physiological saline. Next, 0.1 ml of the medium containing each test compound was added to each well, and the cells were cultured at 37° C. for 72 hours in the carbon dioxide gas incubator. After removing the culture supernatant, 0.1 ml of the medium containing 0.02% Neutral Red was added to each well, and the cells were stained at 37° C. for 1 hour in the carbon dioxide gas incubator. After removing the culture supernatant, the plate was washed once with physiological saline, the pigment was extracted with 0.001 N hydrochloric acid/30% ethanol and then absorption at 550 nm was measured by a microplate reader. The concentration of each test compound which inhibits 50% of the cell growth (IC50) was calculated by comparing the absorption of un-treated cells with that of the cells treated with known concentration of each sample.

[3] = test system: Candida albicans ATCC 10231; experiment: Antibacterial activity test (agar dilution method); format: cell-based; settings: ATCC10231, pH 7, Candida albicans ATCC 10231, read-out: Minimum growth inhibition concentration (MIC), CA
Method: as §1, §2
CA: Candida albicans ATCC 10231

[4] = test system: intracellular tyrosine kinase (v-Src tyrosine kinase, SR-3Y1 cells); experiment: Inhibition test of intracellular tyrosine kinase (tyrosine phosphorylation, Western blotting, SR-3Y1 cells); format: cell-based; settings: Rattus norvegicus, SR3Y1, 37° C., 15 hours, tyrosine-phosphorylated protein, read-out: IC50, inhibitory activity of intracellular tyrosine kinase
Source text: The inhibitory effect of the tyrosine kinase activity can be measured by carrying out Western blotting analysis with an anti-phosphotyrosine antibody using a rat fibroblast cell strain SR-3Y1 transformed with an oncogene v-Src (available from RIKEN Gene Bank) and calculating the amount of intracellular protein in which tyrosine is phosphorylated. Since the tyrosine phosphorylation level of intracellular protein in SR-3Y1 cells for use in this method is increased by v-Src tyrosine kinase, the ability of radicicol derivatives to inhibit v-Src tyrosine kinase can be detected as reduction of the amount of protein in which tyrosine is phosphorylated. Robinson, S. P. et al. [International Journal of Oncology, 2, 253 (1993)] report a method for examination of tyrosine phosphorylation inhibition effect by Western blotting analysis, and Kwon, H. J. et al. [Cancer Research, 52, 6926 (1992)] report examples of experiment using SR-3Y1 cells.
Inhibition Test of Intracellular Tyrosine Kinase
SR-3Y1 cells were cultured at 37° C. for 15 hours in an atmosphere of 5% carbon dioxide, using Dulbecco's modified Eagle's medium (DMEM) containing 10% fetal calf serum (FCS), to which each radicicol derivative to be tested has been added in varied concentration. The thus cultured cells were lysed at 4° C. for 20 minutes in a cooled buffer solution for lysis use (50 mM Tris HCl, pH 7.5, 150 mM NaCl, 1% Triton X-100, 0.1% SDS, 1% sodium deoxycholate, 2 mM EDTA, 1 mM PMSF, 20 μM leupeptin, 0.15 unit/ml aprotinin, 1 mM Na3 VO4) and then centrifuged at 20,000 g for 30 minutes. After measuring protein concentration in the resulting supernatant fluid, samples were adjusted to the same protein quantity per lane to carry out separation of protein by SDS-PAGE. The thus separated protein samples were transferred onto a nitrocellulose membrane to which were subsequently added a mouse […] phosphotyrosine antibody MX-pTYR (Kyowa Medex Co., Ltd.) as a first antibody and a horseradish peroxidase-conjugated […] (BIO-RAD Co.) as a second antibody, thereby effecting their reactions with the protein samples on the membrane. Detection was carried out using ECL reagent (Amersham Co.), and the amount of tyrosine-phosphorylated protein was determined by scanning the density of banks obtained on an X-ray film. The activity of radicicol derivative to inhibit tyrosine phosphorylation can be shown as a concentration (IC50) of each derivative by which the ratio of tyrosine-phosphorylated protein is reduced to half in comparison with a control to which the drug is not added.

[5] = HeLa S3, 72 hours, 37° C., Neutral Red

MIC [1]	SMILES	IC50 (T cell growth)	IC50 (HeLa S3 cells; [5])	IC50 [4]	further results
83 µg/mL (≈ 193 µM)	C[C@@H]1C[C@@H](OC=O)C(Cl)/C=C\C=C\C(=O)Cc2c(Cl)c(O)cc(O)c2C(=O)O1 (some centres unmarked) [Compound 1]				increased life span (ILS) (P388 leukemia): 38%; T/C (tumor volume ratio) (sarcoma 180 solid tumor): 51%
	C[C@@H]1C[C@@H](O)C(Cl)/C=C\C=C\C(=O)Cc2c(Cl)c(O)cc(O)c2C(=O)O1 (some centres unmarked) [Compound 2]				T/C (tumor volume ratio) (sarcoma 180 solid tumor): 50%
83 µg/mL (≈ 186 µM)	C[C@@H]1C[C@@H](O)C(Br)/C=C\C=C\C(=O)Cc2c(Cl)c(O)cc(O)c2C(=O)O1 (some centres unmarked) [Compound 3]	300 nM			increased life span (ILS) (P388 leukemia): 46%
1.3 µg/mL (≈ 1.53 µM)	CC1CC(OS(=O)OC2CC(C)OC(=O)c3c(O)cc(O)c(Cl)c3CC(=O)C=CC=CC2Cl)C(Cl)C=CC=CC(=O)Cc2c(Cl)c(O)cc(O)c2C(=O)O1 (centres unmarked) [Compound 4]		6000 nM		Minimum growth inhibition concentration (MIC), EH [2]: 2.6 µg/mL; MIC [3]: 2.6 µg/mL (≈ 3.06 µM); increased life span (ILS) (P388 leukemia): 42%; T/C (tumor volume ratio) (sarcoma 180 solid tumor): 39%
	CC(=O)Oc1cc(OC(C)=O)c2c(c1Cl)CC(=O)/C=C/C=C\C(Cl)[C@H](OC=O)C[C@@H](C)OC2=O (some centres unmarked) [Compound 6]		5000 nM		
	CC(=O)Oc1cc(OC(C)=O)c2c(c1Cl)CC(=O)C=CC=CC(Cl)C(OS(=O)OC1CC(C)OC(=O)c3c(OC(C)=O)cc(OC(C)=O)c(Cl)c3CC(=O)C=CC=CC1Cl)CC(C)OC2=O (centres unmarked) [Compound 7]		1500 nM		
	C[C@@H]1C[C@H]2O[C@@H]2/C=C\C=C\C(=NO)Cc2c(Cl)c(O)cc(O)c2C(=O)O1 [Compound 8]	10 nM	90 nM	20 nM	
	C[C@@H]1C[C@H]2O[C@@H]2/C=C\C=C\C(=O)Cc2c(Cl)c(O[Si](C)(C)C(C)(C)C)cc(O[Si](C)(C)C(C)(C)C)c2C(=O)O1 [Compound 10]		3200 nM	150 nM	
	C[C@@H]1C[C@H]2O[C@@H]2/C=C\C=C\C(=NO)Cc2c(Cl)c(O[Si](C)(C)C(C)(C)C)cc(O[Si](C)(C)C(C)(C)C)c2C(=O)O1 [Compound 11]			20 nM	IC50 (HeLa S3 cells; HeLa S3, 72 h): 120 nM
	COCON=C1/C=C/C=C\[C@H]2O[C@@H]2C[C@@H](C)OC(=O)c2c(O)cc(O)c(Cl)c2C1 [Compound 13]		20 nM		
	C[C@@H]1C[C@H]2O[C@@H]2/C=C\C=C\C(=NOCCCN=[N+]=[N-])Cc2c(Cl)c(O)cc(O)c2C(=O)O1 [Compound 14]		50 nM	< 50 nM	
	CCCCCCCCCCCCCCCC(=O)Oc1cc(OC(=O)CCCCCCCCCCCCCCC)c2c(c1Cl)CC(=O)/C=C/C=C\C(Br)[C@H](O)C[C@@H](C)OC2=O (some centres unmarked) [Compound 19]	150 nM			

SMILES	MIC [1]	IC50 (T cell growth)	IC50 (HeLa S3 cells; [5])	IC50 [4]	further results
CON=C1/C=C/C=C\[C@H]2O[C@@H]2C[C@@H](C)OC(=O)c2c(O)cc(O)c(Cl)c2C1 [Compound 9]	52 µg/mL (≈ 132 µM)	20 nM	50 nM	< 50 nM	MIC [3]: 6.5 µg/mL (≈ 16.5 µM)
C[C@@H]1C[C@H]2O[C@@H]2/C=C\C=C\C(=O)Cc2c(Cl)c(O)cc(O)c2C(=O)O1 [Radicicol, radicicol]	83 µg/mL (≈ 228 µM)	150 nM		180 nM	IC50 (HeLa S3 cells; HeLa S3, 72 h): 6700 nM; MIC [3]: 20 µg/mL (≈ 54.8 µM); increased life span (ILS) (P388 leukemia): 27%; T/C (tumor volume ratio) (sarcoma 180 solid tumor): 88%
